Measurements reported in patent US11116732B2, “Carotenoid-containing cognitive function improving composition for use in exercise therapy for improving cognitive function” (ASTAREAL CO., LTD., priority 2016, dated 2021).

Legend:
[1] = system: neural progenitor cells; details: in vitro; cited from earlier work
[2] = system: adult hippocampal neurogenesis (hippocampal dentate gyrus); experiment: Adult hippocampal neurogenesis (AHN): immunohistochemical count of Ki67+, BrdU+ and BrdU+/NeuN+ cells after 4 weeks of ASX uptake with or without low intensity exercise; format: in vivo, mouse; details: for number of newly matured cells (BrdU+/NeuN+), rate of change relative to the CON group / number of proliferating cells (Ki67+), rate of change relative to the CON group / number of viable cells (BrdU+), rate of change relative to the CON group: 4 weeks
From the text: (§1) For the purpose of clarifying whether or not hippocampal function improving effect is enhanced by low intensity exercise, influence of combined use of low intensity exercise (7 m/min) of VT or less and ASX uptake (0.5% by weight) on AHN and spatial cognitive function was investigated.
(§2) All the mice used in this experiment were divided so that the weight was equalized at the preliminary breeding end point. These were divided into four groups of placebo+rest (CON), placebo+low intensity exercise (ME), 0.5% ASX uptake+rest (ASX), and the low intensity exercise+0.5% ASX uptake (ME+ASX) (FIG. 5). Mice were bred each one per a cage.
0.5% ASX uptake or placebo uptake was carried out.
The mice in the low intensity exercise group imposed a treadmill running exercise of 7 m/min for 30 minutes a day. Also, the mice in the rest group were placed on the treadmill for equal time with the running exercise training and were not allowed to exercise anything (control experiment). For the running exercise training, a treadmill for small animals (KN-73, Natsume, Japan) was used. In either of the groups, training or control experiment was imposed once a day in the dark period, which became active for mice.
BrdU (bromodeoxyuridine) is taken up as an analog molecule of thymidine into the cell nucleus at the S phase of the cell cycle and is used to evaluate cell division, proliferation, and subsequent survival. Thus, BrdU (100 mg/kg BW) was intraperitoneally administered to all mice during three days before starting running exercise and 0.5% ASX uptake (FIG. 5). Administration was carried out only once a day (AM8:00).
Immunohistochemical staining method is a method of labeling and visualizing a target DNA or protein on a tissue utilizing an antigen antibody reaction. In visualization, it is carried out by labelling an enzyme or a fluorescent substance, etc., which is a substance to be a marker, to an antibody which bounds to an antigen, and reacting with the marker to colorize the antibody adhered portion. In this experiment, fluorescent antibody method was used for evaluation of proliferating cells, viable cells and newly matured neurons.
In this experiment, BrdU was identified for the evaluation of neoplastic cells. For identification, rat anti-BrdU antibody (Rat anti-BrdU, AbD Serotec) was used as a primary antibody and CyTM3 donkey anti-rat IgG antibody (Cy3 Donkey Anti-Rat IgG, JACKSON) was used as a secondary antibody to fluorescently label with red color and visualized. In addition, for identification of mature neurons, mouse anti-NeuN antibody (Mouse Anti-Neuronal Nuclei monoclonal antibody, Chemicon) was used as a primary antibody, and for visualization, a fluorescently labeled secondary antibody AMCA donkey anti-mouse IgG antibody (AMCA Donkey Anti-Mouse IgG, JACKSON) was used and stained to blue color.
According to this procedure, newly matured cells were evaluated by BrdU+/NeuN+ reaction (red+bluish white). The procedures of the fluorescent antibody method were shown below.
In this experiment, for evaluation of cell proliferation, it was identified by Ki67. For identification, rabbit anti-Ki67 antibody (Rabbit anti-Ki67, Abcam) was used as a primary antibody, and Alexa 555 anti-rabbit IgG antibody (Goat Alexa 555 anti-rabbit IgG, Biotium) was used as a secondary antibody to fluorescently label with red color and visualized. In addition, for identification of the matured neurons, mouse anti-NeuN antibody (Mouse Anti-Neuronal Nuclei monoclonal antibody, Chemicon) was used as a primary antibody, and for visualization, a fluorescently labeled secondary antibody AMCA donkey anti-mouse IgG antibody (AMCA Donkey Anti-Mouse IgG, JACKSON) was used and stained to blue color. According to this procedure, newly matured cells were evaluated by Ki67+/NeuN+reaction (red+bluish white). The procedures of the fluorescent antibody method were shown below.
All data were expressed as an average value±standard error of each sample. […]

[3] = system: nerve injury due to epilepsy; details: rat, in vivo; cited from earlier work
[4] = system: hippocampal gene expression; experiment: Hippocampal gene expression by DNA microarray and IPA network analysis; format: in vivo, mouse
From the text: as §2, with “three” for “four”, “(ME),” for “(ME), 0.5% ASX uptake+rest (ASX),”, “and” for “and the”, “(each n=8).” for “(FIG. 5).”
The brain was removed two days after 4 weeks training and ASX uptake. The hippocampus was fractionated from the collected brain (Hirano M, Rakwal R, Shibato J, Sawa H, Nagashima K, Ogawa Y, Yoshida Y, Iwahashi H, Niki E, Masuo Y. Proteomics- and transcriptomics-based screening of differentially expressed proteins and genes in brain of Wig rat: a model for attention deficit hyperactivity disorder (ADHD) research. J Proteome Res 7: 2471-2489, 2008). The hippocampus was immediately frozen with liquid nitrogen and stored in a freezer at −80° C. […]
3) Hybridization: Samples of fluorescently labeled control group (CON group) and experiment group (ME group, ME+ASX group) are assayed on the same Microarray chip and hybridized with a 60 base pair probe on the slide glass. […] In the program at this time, the color intensity of Cy3 and Cy5 of all the probes was measured. 6) Standardization of data: For standardization of data, LOWESS (locally weighted linear regression) was used, and logarithmic and logarithmic error rates standardized from Cy3 and Cy5 signals were calculated. […]

[5] = system: hippocampal mRNA expression; experiment: Hippocampal mRNA expression by RT-PCR; format: in vivo, mouse
From the text: as §2, with “three” for “four”, “(ME),” for “(ME), 0.5% ASX uptake+rest (ASX),”, “and” for “and the”, “(each n=8).” for “(FIG. 5).”
The brain was removed two days after 4 weeks training and ASX uptake. The hippocampus was fractionated from the collected brain (Hirano M, Rakwal R, Shibato J, Sawa H, Nagashima K, Ogawa Y, Yoshida Y, Iwahashi H, Niki E, Masuo Y. Proteomics- and transcriptomics-based screening of differentially expressed proteins and genes in brain of Wig rat: a model for attention deficit hyperactivity disorder (ADHD) research. J Proteome Res 7: 2471-2489, 2008). The hippocampus was immediately frozen with liquid nitrogen and stored in a freezer at −80° C.
In order to confirm the reproducibility and validity of the molecular mechanism estimated by the microarray and IPA analysis, 12 genes were picked up and the changes in their gene expression were reexamined by RT-PCR.
All data were expressed as an average value±standard error. For statistical processing of RT-PCR, after one-way analysis of variance (One-way ANOVA), the Bonferroni's tests method was used as post-hoc. All the significance levels were set to less than 5%.

[6] = in vivo; cited from earlier work
[7] = system: spatial learning memory ability; experiment: Morris water maze (MWM): place learning escape training and probe test; format: in vivo, mouse; details: for escape time during place learning escape training: P<0.05
From the text: as §1, §2
2-11. Evaluation of Spatial Learning Memory Ability: Morris Water Maze (MWM)
Evaluation of spatial learning memory ability was carried out.
Here, in order to clarify whether or not improvement of the hippocampal function due to the low intensity exercise is enhanced by ASX uptake, influence of combined use of the low intensity exercise of VT or less and 0.5% ASX uptake on AHN and spatial learning memory ability was investigated. For the evaluation of AHN, the numbers of proliferating cells (Ki67+), viable cells (BrdU+), and newly matured cells (BrdU+/NeuN+) were counted using immunohistochemical staining method and the result thereof was shown by the rate of change relative to the CON group. Also, the spatial learning memory ability was evaluated using the MWM with regard to acquiring ability (learning) of memory by the place learning escape training for 4 days, and retention and recollection ability of memory by the probe test on the fifth day.

[8] = ASX group compared with the CON group, P<0.05
[9] = ASX group: 0.5% ASX uptake + rest
[10] = ME+ASX group: low intensity exercise (7 m/min) + 0.5% ASX uptake

CC1=C(/C=C/C(C)=C/C=C/C(C)=C/C=C/C=C(C)/C=C/C=C(C)/C=C/C2=C(C)C(=O)[C@@H](O)CC2(C)C)C(C)(C)C[C@H](O)C1=O [ASX, astaxanthin]
proliferation of neural progenitor cells [1]: enhances the proliferation of neural progenitor cells | number of BrdU positive cells [2, 8]: significant increase | number of BrdU/NeuN positive cells [2, 8]: significant increase | number of Ki67 positive cells [2, 8]: significant increase | number of newly matured cells (BrdU+/NeuN+), rate of change relative to the CON group [2, 9]: +46.3% | number of proliferating cells (Ki67+), rate of change relative to the CON group [2, 9]: +16.9% | number of viable cells (BrdU+), rate of change relative to the CON group [2, 9]: +44.9% | effect of the combination of low intensity exercise and ASX uptake on AHN and hippocampal function, against the sum of the ME group and the ASX group ([2]; ME+ASX group): synergistically increases | number of Ki67 positive cells ([2]; ME+ASX group compared with the ME group and the ASX group, P<0.001): significant increase | number of BrdU positive cells ([2]; ME+ASX group compared with the ME group and the ASX group, P<0.05): significant increase | number of newly matured cells (BrdU+/NeuN+), rate of change relative to the CON group [2, 10]: +102.9% | number of proliferating cells (Ki67+), rate of change relative to the CON group [2, 10]: +52.3% | number of viable cells (BrdU+), rate of change relative to the CON group [2, 10]: +95.7% | protection against nerve injury due to epilepsy [3]: protect against nerve injury due to epilepsy | Igflr (insulin-like growth factor 1 receptor) gene expression (IPA network analysis) ([4]; ME+ASX group only): estimated to enhance | Lep and Cxcr4 gene expression (IPA network analysis) ([4]; ME+ASX group, similar to the ME group): enhancement | mRNA expression of Cxcr4, Stat3, Mapk1 and Jak2 ([5]; ME+ASX group (also in the ME group)): significantly increased | mRNA expression of Psen1, Notch2, Igflr, Igfl, Pi3k and Creb ([5]; only in the ME+ASX group): increased significantly | passage through the blood brain barrier [6]: moves through the blood brain barrier into the brain | spatial memory capacity, increase rate for the CON group ([7]; ASX group): 25.9% | result of the MWM ([7]; ASX group, 0.5% ASX uptake): significantly improved | escape time during place learning escape training ([7]; ASX group, fourth day): significant shortening | probe test: ratio of the cumulative time of swimming within the quadrant where the platform existed to the total swimming time [7, 9]: 30.5% | spatial memory capacity, increase rate for the CON group ([7]; ME+ASX group): 60.6% | escape time during place learning escape training ([7]; ME+ASX group compared with the CON, third day): significant shortening | probe test: ratio of the cumulative time of swimming within the quadrant where the platform existed to the total swimming time ([7]; ME+ASX group: low intensity exercise + 0.5% ASX uptake): 39.9% | swimming speed ([7]; among the groups (CON, ME, ASX, ME+ASX)): no significant difference
